Test results reported in paper PMC6272301, “Inhibition of Oxidative Stress and Skin Aging-Related Enzymes by Prenylated Chalcones and Other Flavonoids from Helichrysum teretifolium” (Molecules, 2015).
Several values for one entry are separate records, joined by “and”; a condition that tells them apart may be missing. Equal entries are not always repeated.

Experiments:
[1] = test system: Fe (II)-induced microsomal lipid peroxidation (rat liver microsomes); test: Inhibition of Fe (II)-induced microsomal lipid peroxidation; assay type: biochemical; conditions: TBARS, purified compounds screened at 26.750 μg/mL, extract (HT) at 100 μg/mL
Source text: 3.4.4. Inhibition of Fe (II)-Induced Microsomal Lipid Peroxidation Assay
A modified assay described by Snijman et al. with little modifications.

[2] = Copper-initiated prooxidant activity in the ORAC assay (Cu2+ without H2O2); conditions: Cu2+ (CuSO4) 18 µM without H2O2, 37 °C; prooxidant (arbitrary) units
Experimental: (§1) 3.4.2. Automated Oxygen Radicals Absorbance Capacity (ORAC) Assay
(§2) ORAC was measured according to the method described by Prior [30], with some modifications. […] The copper-initiated prooxidant activity was calculated using [(AreaBlank − AreaSample)/AreaBlank] × 100 and expressed as prooxidant units; one unit equals the prooxidant activity that reduces the area under the fluorescein decay curve by 1% in the ORAC assay.

[3] = Automated ORAC assay, hydroxyl radical (H2O2-Cu2+; ORAC OH.); conditions: hydroxyl radical from H2O2 0.3% - Cu2+ 18 µM, 37 °C; Trolox equivalents
Experimental: as §1, §2

[4] = Automated ORAC assay, peroxyl radical (AAPH; ORAC ROO.); conditions: peroxyl radical from AAPH, 37 °C; Trolox equivalents
Experimental: as §1, §2

[5] = molecular target: T1, elastase (from porcine pancreas) (Sus scrofa, UniProt P00772); test: Elastase inhibition assay; assay type: biochemical; conditions: substrate SANA, 100 μg/mL optimum concentration; for IC50: read-out: Inhibitory Activitis (IC50) Elastase (converted)
T1 construct: purchased Sigma-Aldrich, Inc. (St. Louis, MO, USA); host or cells: porcine pancreas
Experimental: (§3) Organic solvents, methanol, acetonitrile (HPLC grade), ethanol, ethyl acetate, dichloromethane and hexane were supplied by Merck (Cape Town, South Africa). TLC was conducted on normal-phase (Merck) Silica gel 60 PF254 pre-coated aluminum plates. Column chromatography was performed using silica gel 60 H (0.040–0.063 mm particle size, Merck) and Sephadex LH-20 (Sigma-Aldrich, Cape Town, South Africa). NMR spectra were recorded on an Avance 400 MHz NMR spectrometer (Bruker, Rheinstetten, Germany) in deuterated chloroform and acetone, using the solvent signals as internal reference. HRMS analysis was conducted on an Ultimate 3000 LC (Dionex Sunnyvale, CA, USA) coupled to a Bruker QTOF with electrospray ionization (ESI) interface working in the positive ion mode.
3.4.6. Elastase Inhibition Assay
Inhibition of elastase by the test samples was assayed using N-succyl-(Ala)3-nitroanilide (SANA) as the substrate, monitoring the release of p-nitroanilide by the method described by Chompo et al. with little adjustment. The inhibitory activity determined the intensity of colour released during cleavage of SANA by the action of elastase. Briefly, 1 mM SANA was prepared in 0.1 M Tris-HCl buffer pH 8.0 and 200 µL of this solution was added to the 20 µL of sample solution in a 96-Well plate. The mixtures were vortexed and preincubated for 10 min at 25 °C and then 20 µL of elastase from porcine pancrease (0.03 units/mL) was added. The mixtures were further incubated for 10 min and the absorbance was measured at 410 nm. Methanol was used as control, while oleanolic acid used as a positive control.

[6] = Ferric-ion reducing antioxidant power assay (FRAP); conditions: ascorbic acid equivalents; absorbance 593 nm
Experimental: 3.4.1. Ferric-Ion Reducing Antioxidant Power Assay (FRAP)
Working FRAP reagent was prepared in accordance to the methods described previously. […] L-Ascorbic acid was used as a standard and the results were expressed as μM ascorbic acid equivalents per […] dry weight (μM AAE/g DW) of the test samples.

[7] = Trolox equivalent absorbance capacity (TEAC) assay; conditions: Trolox equivalents; absorbance 734 nm, 25 °C
Experimental: 3.4.3. Trolox Equivalent Absorbance Capacity (TEAC) Assay
The total antioxidant activity of test samples were measured using previously described methods.

[8] = molecular target: tyrosinase (from mushroom) (Agaricus bisporus, UniProt C7FF04); test: Tyrosinase enzyme assay; assay type: biochemical; conditions: substrate L-Tyrosine; screened at effective concentration of 50 μg/mL
Experimental: as §3
Samples were dissolved in DMSO to a stock solution of 1 mg/mL, and further dilutions were then done with 50 mM sodium phosphate buffer (pH 6.5) for all working solutions. […] Incubation commenced for 30 min at room temperature and the enzyme activity was determined by measuring the absorbance at 490 nm.

T1 sequence (P00772 27-266): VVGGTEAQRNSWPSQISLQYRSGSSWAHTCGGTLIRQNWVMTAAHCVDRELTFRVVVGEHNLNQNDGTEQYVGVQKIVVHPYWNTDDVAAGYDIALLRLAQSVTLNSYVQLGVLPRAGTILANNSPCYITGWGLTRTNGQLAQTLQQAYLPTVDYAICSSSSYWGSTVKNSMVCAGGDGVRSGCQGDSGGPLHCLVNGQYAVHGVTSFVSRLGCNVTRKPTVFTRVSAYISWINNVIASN
Sequence of tyrosinase (from mushroom) (C7FF04 1-392): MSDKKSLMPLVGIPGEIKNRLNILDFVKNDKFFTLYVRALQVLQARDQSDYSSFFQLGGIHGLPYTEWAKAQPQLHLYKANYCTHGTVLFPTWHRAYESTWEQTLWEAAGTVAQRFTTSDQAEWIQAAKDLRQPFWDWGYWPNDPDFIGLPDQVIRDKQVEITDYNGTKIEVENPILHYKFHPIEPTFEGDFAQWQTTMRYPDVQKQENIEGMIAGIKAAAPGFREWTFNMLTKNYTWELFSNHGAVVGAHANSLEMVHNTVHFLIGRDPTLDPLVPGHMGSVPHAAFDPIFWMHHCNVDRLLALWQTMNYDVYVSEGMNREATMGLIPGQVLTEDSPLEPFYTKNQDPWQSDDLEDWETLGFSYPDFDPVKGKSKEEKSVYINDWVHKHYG

Inhibitory Activitis (IC50) Lipid Peroxidation [1] [µg/mL] | IC50 [5] [µM] | Molecule | Automated Oxygen Radical Absorbance Capacity (ORAC μM TE/g) Prooxidant [2] [µM/g] | Automated Oxygen Radical Absorbance Capacity (ORAC μM TE/g) OH. [3] [μM/g × 10^6] | Automated Oxygen Radical Absorbance Capacity (ORAC μM TE/g) ROO. [4] [μM/g × 10^3] | FRAP [6] | TEAC [7] [μM TE/g] | Inhibitory Activitis (IC50) Tyrosinase [8] [µg/mL] | Inhibitory Activitis (IC50) Elastase [5] [µg/mL]
>26.750 | > 256 | CC(C)=CCOc1cc(O)c(C(=O)/C=C/c2ccccc2)c2c1C=CC(C)(C)O2 [Compound 1, 2'-hydroxy-5',6'-(2,2-dimethylpyrano)-4'-(O-prenyl)-chalcone] | 2.036 ± 2.98 | 2.998 ± 1.67 | 2.833 ± 3.88 | – | – | – | –
>26.750 | > 308 | CC(C)=CCc1c(O)cc(O)c2c1O[C@H](c1ccccc1)CC2=O [Compound 5, glabranin] | 2.971 ± 1.10 | 2.997 ± 0.36 | 0.856 ± 17.35 | 67.79 ± 14.27 μM AAE/g | 204.15 ± 2.04 | – | –
0.929 | – | O=C(O[C@@H]1Cc2c(O)cc(O)cc2O[C@@H]1c1cc(O)c(O)c(O)c1)c1cc(O)c(O)c(O)c1 [EGCG, epigallocatechin gallate, reference compound] | 6.483 ± 1.19 | 3.911 ± 4.65 | 14.970 ± 5.53 | 3326.45 ± 5.76 μM AAE/g | 11545.4 ± 17.28 | – | –
6.449 | 274 | COc1ccc(-c2oc3cc(O)cc(O)c3c(=O)c2O)cc1O [Compound 8, 4'-methoxyquercetin] | 8.963 ± 2.79 | 6.779 ± 3.40 | 12.545 ± 5.07 | 3584.17 ± 0.54 μM AAE/g | 1009.01 ± 1.98 | – | –

The remaining lines, values behind:

Molecule | Inhibitory Activitis (IC50) Lipid Peroxidation [1] [µg/mL] | IC50 [5] [µM] | Automated Oxygen Radical Absorbance Capacity (ORAC μM TE/g) Prooxidant [2] [µM/g] | Automated Oxygen Radical Absorbance Capacity (ORAC μM TE/g) OH. [3] [μM/g × 10^6] | Automated Oxygen Radical Absorbance Capacity (ORAC μM TE/g) ROO. [4] [μM/g × 10^3] | FRAP [6] | TEAC [7] [μM TE/g] | Inhibitory Activitis (IC50) Tyrosinase [8] [µg/mL] | Inhibitory Activitis (IC50) Elastase [5] [µg/mL]
O=c1c(O)c(-c2ccc(O)c(O)c2)oc2cc(O)cc(O)c12 [Compound 7, quercetin] | 2.931 | – | 4.361 ± 0.78 | 7.265 ± 0.71 | 17.836 ± 2.90 | 4816 ± 7.42 μM AAE/g and 4816.31 ± 7.42 μM AAE/g | 1361.70 ± 1.98 | – | –
CC(C)=CCc1c(O)cc(O)c(C(=O)/C=C/c2ccccc2)c1O [Compound 3, 2',4',6'-trihydroxy-3'-prenylchalcone] | 21.276 | > 308 | 4.704 ± 0.27 | 3.771 ± 3.02 | 5.025 ± 6.16 | 817.94 ± 4.26 μM AAE/g | 4529.01 ± 2.44 | – | –
COc1cc2oc(-c3ccccc3)cc(=O)c2c(O)c1OC [Compound 10, mosloflavone] | 10.720 | > 335 | 6.482 ± 1.55 | 2.909 ± 8.41 | 2.403 ± 2.50 | 544.60 ± 6.98 μM AAE/g | 699.66 ± 2.28 | – | –
isoxanthohumol [Compound 2] | >26.750 | – | 3.601 ± 2.23 | 2.910 ± 6.00 | 3.113 ± 17.59 | 619.91 ± 1.97 μM AAE/g | 4170.66 ± 6.72 | >50 | >100
COc1ccc(-c2oc3cc(O)cc(O)c3c(=O)c2O)cc1 [Compound 9, 4'-methoxykaempferol] | 10.520 | > 333 | 3.790 ± 1.15 | 3.675 ± 1.40 | 10.491 ± 0.97 | 191.47 ± 1.39 μM AAE/g | 261.30 ± 4.02 | – | –
CC(C)=CCc1c(O)cc2c(c1O)C(=O)C[C@@H](c1ccccc1)O2 [Compound 4, isoglabranin] | >26.750 | > 308 | 3.947 ± 0.29 | 2.918 ± 4.13 | 1.063 ± 33.50 | 7.052 ± 3.76 μM AAE/g | 43.17 ± 6.26 | – | –
